Values joined by “and” are separate entries in the source; they are usually repeats but may differ in a detail not shown here. Equal entries are not always repeated.
Legend:
[1] = Crystal, Calculated from knudsen effusion weight loss
[2] = molar enthalpy of vaporization or sublimation; conditions: 298.15 K, Crystal

O=[N+]([O-])c1c(Cl)cc(Cl)cc1Cl [1,3,5-trichloro-2-nitrobenzene]
Conditions | molar enthalpy, Drop-Microcalorimetry [kcal/mol] | vapor or sublimation pressure, 287.13 K | vapor or sublimation pressure, 289.15 K | vapor or sublimation pressure, 291.14 K | vapor or sublimation pressure, 293.13 K | vapor or sublimation pressure, 295.15 K | vapor or sublimation pressure, 297.15 K | vapor or sublimation pressure, 299.14 K | vapor or sublimation pressure, 301.13 K | vapor or sublimation pressure, 303.14 K
[1] | – | 0.000143 kPa and 0.000137 kPa and 0.000136 kPa | 0.000183 kPa and 0.000176 kPa and 0.000174 kPa | 0.000231 kPa and 0.000224 kPa and 0.000217 kPa | 0.000295 kPa and 0.000293 kPa and 0.000301 kPa | 0.000387 kPa and 0.000371 kPa and 0.000369 kPa | 0.000487 kPa and 0.000435 kPa and 0.000445 kPa | 0.000651 kPa and 0.000582 kPa and 0.000577 kPa | 0.0008 kPa and 0.000723 kPa and 0.000725 kPa | 0.000992 kPa and 0.000924 kPa and 0.000927 kPa
[2] | 20.1 | – | – | – | – | – | – | – | – | –

O=[N+]([O-])c1c(Cl)c(Cl)cc(Cl)c1Cl [2,3,5,6-tetrachloronitrobenzene]
Conditions | molar enthalpy [kcal/mol]
[2], Drop Microcalorimetry | 21.8

O=[N+]([O-])c1c(Cl)c(Cl)c(Cl)c(Cl)c1Cl [pentachloronitrobenzene]
Conditions | molar enthalpy [kcal/mol] | vapor or sublimation pressure
[1], 317.11 K | – | 0.000102 kPa and 0.000101 kPa
[1], 319.18 K | – | 0.000129 kPa and 0.000127 kPa and 0.000124 kPa
[1], 321.2 K | – | 0.00015 kPa and 0.000155 kPa and 0.000154 kPa
[1], 323.11 K | – | 0.000197 kPa and 0.000196 kPa and 0.000199 kPa
[1], 325.18 K | – | 0.000246 kPa and 0.000245 kPa and 0.000241 kPa
[1], 327.2 K | – | 0.000289 kPa and 0.000296 kPa and 0.000292 kPa
[1], 329.11 K | – | 0.000372 kPa and 0.000367 kPa and 0.000366 kPa
[1], 331.17 K | – | 0.000462 kPa and 0.000453 kPa and 0.000447 kPa
[1], 333.2 K | – | 0.000531 kPa and 0.000549 kPa and 0.00054 kPa
[1], 335.11 K | – | 0.000692 kPa and 0.000673 kPa and 0.000671 kPa
[1], 337.18 K | – | 0.000844 kPa and 0.000833 kPa and 0.000818 kPa
[1], 339.2 K | – | 0.000971 kPa and 0.001009 kPa and 0.000993 kPa
[2], Drop Microcalorimetry | 23 | –

From the NIST ThermoML archive (doi:10.1016/j.jct.2009.03.014)
